The values that follow come from patent EP0404374A2, “Composition” (IMPERIAL CHEMICAL INDUSTRIES PLC, priority 1989, dated 1990).

Counter-ions that a name gives are not always drawn.

Assay [1] deals with cellulase from Aspergillus niger. The assay is described as follows: cellulase activity: viscosity (flow time) of carboxymethyl cellulose solution. The assay is classed as biochemical. The following applies: additive 10mM dm⁻³ pre-incubated with enzyme one hour at 25°C, about 24 minutes in the absence of cellulase; for Flow Rate (b) With additive 10: flow time after 10 minutes incubation; for Flow Rate (b) With additive 60: flow time after 60 minutes incubation. The method, then:
To determine cellulase activity, 15cm³ of a 1% w/v solution of carboxymethyl cellulose in 50mM/dm³ of a tris (hydroxymethyl) aminomethane/hydrochloric acid buffer having a pH of 9, was incubated at 25°C with 0.01cm³ of a 10mg.cm⁻³ aqueous solution of cellulase from Aspergillus niger obtained from the Sigma Chemical Company.
The viscosity of the cellulose solution was determined after being incubated with the cellulase for either 10 or 60 minutes
To determine the effect of an additive on the spoilage activity of the enzyme, the compound was incubated with the enzyme at 25°C for a period of one hour, the concentration of the additive being 10mM dm⁻³ . The pre-incubated mixture was then added to a carboxymethyl cellulose solution of the type previously described. The resulting mixture was incubated and the viscosity was determined after 10 and 60 minutes incubation.

Assay [2] concerns purified components of the cellulase complex. The following applies: Wood et al, Biochem.J. (1980), 189, 51 to 65; cited from earlier work.
In another assay the test system is protease from S. griseus. Put plainly: protease catalysed hydrolysis of chromogenic substrate. The class given is biochemical. As to conditions: substrate BTEE, one hour at 25°C, pH7. The procedure: N,N¹-dichlorodimethyl hydantoin was dissolved in ethanol in a known amount and was added to a protease in a 0.1M potassium phosphate buffer containing potassium dihydrogen phosphate and dipotassium hydrogen phosphate at pH7. The mixture was incubated for one hour at 25°C and the enzyme activity was then compared to that of a control by monitoring the protease catalysed hydrolysis of an appropriate chromogenic substrate.

For assay [3], the system named is lipase from Candida cylindracea. The assay is described as follows: lipase activity, turbidimetric method with triolein. The assay is classed as biochemical. The following applies: enzyme CC; 9 millimoles; incubated 30 minutes at 25°C, pH 9.2; relative to control. The method, then:
(§1) N,N¹-dichlorodimethyl hydantoin in an amount of 9 millimoles was dissolved in ethanol and added to a lipase in a tris (hydroxymethyl) aminomethane/hydrochloric acid buffer at a pH of 9.2. The mixture was incubated for 30 minutes at 25°C and neutralised by the addition of thiosulphate. The activity of the enzyme was determined as described hereafter.
(§2) Lipase activity was determined by the turbidimetric method described on pages 26 to 34 of "Methods of Enzymatic Analysis" Third Edition, edited by H V Bergmeyer and published by Verlag Chemie. The decrease in the light scattering of triolein (1,2,3-tris[cis-9-octadecenoyl]glycerol) by lipase was measured at 25°C and 350 nanometres on a Perkin-Elmer Lambda 15 spectrophotometer. Light scattering was measured on 2.8cm³ of an aqueous solution containing 24 micromoles of "Tris" buffer at pH 9.2, one micromole of calcium chloride, 35 micromoles of sodium chloride, 17.5 micromoles of sodium deoxycholate and 0.28 micromole of triolein. The activity was determined by the addition of 5mm³ of an aqueous solution containing 4.5mg cm⁻³ of lipase. Table Two

Assay [4] concerns lipase from Pseudomonas species. The assay is described as above. The class given is biochemical. The following applies: enzyme PS; 9 millimoles; incubated 30 minutes at 25°C, pH 9.2; relative to control. The method, then: as §1, §2
Assay [5] addresses chymotrypsin (EC 3.4.21.1) (Bos taurus, UniProt P00766). Put plainly: protease catalysed hydrolysis of chromogenic substrate. The class given is biochemical. The following applies: pH 7, substrate BTEE, one hour at 25°C, pH7, read-out: % of activity retained (h). The method, then: N,N¹-dichlorodimethyl hydantoin was dissolved in ethanol in a known amount and was added to a protease in a 0.1M potassium phosphate buffer containing potassium dihydrogen phosphate and dipotassium hydrogen phosphate at pH7.

The subject of assay [6] is amylase (1,4-α-D-glucan-glucanhydrolase; EC 3.2.1.1). The assay is described as follows: amylase activity in the breakdown of starch (3,5-dinitrosalicylate, absorbance at 540nm). The following applies: amylase incubated for 90 minutes with 9 X 10⁻⁴M compound; absorption at 540nm. The assay is classed as biochemical, Bacillus species. The procedure:
A sample of amylase (1,4-α-D-glucan-glucanhydrolase; EC 3.2.1.1) from a Bacillus species (amylase sample obtained from the Sigma Chemical Company) was tested for activity in the breakdown of starch in the presence and absence of N,N¹-dichlorodimethyl hydantoin.
The activity of the amylase was estimated by a modification of the method described in Methods in Enzymology, published by the Academic Press, Volume 1, on page 149.
1g of potato amylopectin (a soluble starch) was dissolved in 200cm³ of a 20mM sodium phosphate aqueous buffer solution adjusted to pH7. 1cm³ of this solution was equilibrated in a water bath maintained at 25 °C. To the foregoing solution were added 2mm³ of an aqueous solution containing amylase in a concentration of 1mg of amylase/cm³ of solution. The mixture was incubated at 25 °C for five minutes. The reaction was then stopped by the addition of 1cm³ of a 0.4M aqueous sodium hydroxide solution containing 10mg/cm³ of 3,5-dinitrosalicylate and 0.3g/cm³ of sodium potassium tartrate. The resultant mixture was placed in a boiling water bath for five minutes, cooled rapidly and diluted with 10cm³ of water (deionised and subsequently doubly distilled in glass apparatus). The absorbance of the resulting mixture at 540nm was determined using a Perkin Elmer LAMBDA 15 spectrophoto meter.

Regarding `O=S(=O)(c1ccccc1)N(Cl)Cl` [DCBS, N,N-dichlorobenzene sulphonamide], in assay [1], the “Flow Rate (b) With additive 10” value is 21.20 min and the “Flow Rate (b) With additive 60” value was 18.80 min.

Take `O=c1[nH]c(=O)n(Cl)c(=O)n1Cl` [DCIA, dichloroisocyanuric acid]: in assay [1], the “Flow Rate (b) With additive 10” value was 22.10 min and the “Flow Rate (b) With additive 60” value is 22.30 min.

As for `Cln1cncn1` [CT, 1-chloro-1,2,4-triazole], in assay [1], the “Flow Rate (b) With additive 10” value amounted to 23.50 min and the “Flow Rate (b) With additive 60” value was 22.90 min.

Turning to `CC12N(Cl)C(=O)N(Cl)C1(C)N(Cl)C(=O)N2Cl` (centres unmarked) [TCMG, tetrachloro-dimethyl glycoluril], in assay [1], the “Flow Rate (b) With additive 10” value amounted to 22.80 min and the “Flow Rate (b) With additive 60” value turned out to be 22.50 min.

Turning to `O=c1[nH]c(=O)n(Cl)c(=O)n1Cl` [DCIS, sodium salt of dichlorosiocyanuric acid], in assay [1], the “Flow Rate (b) With additive 10” value was found to be 21.90 min and the “Flow Rate (b) With additive 60” value stood at 19.40 min.

For the molecule `O=C1N(Cl)C2C(N1Cl)N(Cl)C(=O)N2Cl` (centres unmarked) [TCG, tetrachloroglycoluril], in assay [1], the “Flow Rate (b) With additive 10” value was 23.60 min and the “Flow Rate (b) With additive 60” value is 23.00 min.

Consider `O=C1CCC(=O)N1Br` [N-bromosuccinimide], for which the “effect on the activity of the enzyme” value in assay [2] is “potent inhibitor”.

As for `CC(=O)OI(OC(C)=O)c1ccccc1` [PIDA, phenyl iodonium di-acetate], in assay [1], the “Flow Rate (b) With additive 10” value worked out at 22.60 min and the “Flow Rate (b) With additive 60” value is 21.80 min.

Turning to sodium tetrachloroaurate [STCA], in assay [1], the “Flow Rate (b) With additive 10” value came to 23.80 min and the “Flow Rate (b) With additive 60” value came to 23.70 min.

Consider `CC1(C)C(=O)N(Cl)C(=O)N1Cl` [DCMH, N,N¹-dichlorodimethyl hydantoin], for which the entries for the “% of activity retained (h)” value in the assay with protease from S. griseus (DCMH 0.9 mM) and in the assay with protease from S. griseus (DCMH 9.0 mM) were 88% and 9%, respectively. Also, the “% of activity retained (d)” value in assay [3] came out at 14%; in assay [4], 45%. For the same molecule, in assay [5] (DCMH 0.9 mM), the activity at 900 µM was 66%. Moreover, in assay [5] (DCMH 9.0 mM), the activity at 9000 µM worked out at 29%. Further, in assay [6], the “breakdown of starch to sugar” value is “no breakdown of starch to sugar could be deteced”. Further, in assay [1], the “Flow Rate (b) With additive 10” value was found to be 23.10 min. Further, in assay [1], the “Flow Rate (b) With additive 60” value was determined as 22.90 min.
